Results published in US20070116781A1, “Hydrogen Cyanamide Pesticide Formulations” (priority 2005, published 2007).

What was measured:
Dorylaimida nematodes = test: Effect on beneficial nematodes in covered pots of silt loam; type: in vivo
Procedure: In this study, the soil was naturally infested with four species of nematodes, two of which were deleterious and two beneficial, and observations were made of both the nematode survival and the growth of the soybean plants.
Stock solutions of hydrogen cyanamide at 1.0% by weight and propionic acid at 5.0% by weight, both in water, were prepared, the hydrogen cyanamide from a phosphate-buffered 50% aqueous solution. Planting pots measuring 10 cm in diameter, each containing 1 kg of soil, were used. The soil was silt loam from a cotton field, pH 6.2, CEC<10 meq/100 g soil, organic matter<1.0%. The treatment chemicals were combined in various dilutions such that 100 mL of the combined dilutions contained the desired amount of each chemical for each test. The combined dilutions were then applied to the soil surface in each pot, at 100 mL of combined dilution per pot. The dilutions were selected to achieve target application rates expressed in milligrams of the treatment chemical per kilogram of soil, with 1 milligram of treatment chemical per kilogram of soil being approximately equal to 2 kilograms of the chemical per hectare of soil or 2 pounds of the chemical per acre of soil.
Immediately after the treatment chemicals were applied, each pot was covered by a thick (1.5 mil), clear, low-density polyethylene bag. After twelve days, the bags were removed and soil samples were taken from each pot for nematological analysis by the salad bowl technique of Rodriguez-Kabana, R., and M. H. Pope, Nematropica, 11: 175-186 (1981). The results of these analyses are listed in Table I as pre-plant test results. The results for the two deleterious nematodes are also shown as plots of the number of nematodes vs. the hydrogen cyanamide application rate in FIGS. 1 and 2.
After the polyethylene bags were removed, each pot was planted with Hutcheson soybean seeds at 5 seeds per pot, and the seeds were allowed to germinate and the plants to grow for 45 days. The resulting plants were then removed from the pots, the root systems were washed, and the number of plants in each pot was determined. The weights of both fresh shoots and roots were also determined as well as the shoot height and the relative health of the root system, using a subjective index. Soil samples were also collected, and the soil and roots were incubated to determine nematode populations. Treatments were arranged in randomized complete block design with seven replications per treatment, and statistical evaluation of the data was performed with analyses of variance (ANOVA) and standard regression procedures. Fischer's Least Significant Difference at p 0.05 was calculated when appropriate. The results of these tests are listed as final test results in Tables II, III, and IV, with nematode populations in the soil listed in Table II, the nematode populations in the root systems in Table III, and the plant and root parameters of the soybean shoots in Table IV.

all weeds = test: Herbicidal activity, cyanamide and propionic acid, pre-emergence, covered pots; type: in vivo
Procedure: (§1) The weeds used in these tests were grown from a standard weed seed pack of common annual and perennial weeds representing an extreme weed situation. The weeds included yellow nutsedge (Cyperus esculentus), crabgrass (Digitaria sanguinalis), pigweed (Amaranthus spp.), momingglory (Ipomoea spp.), sicklepod (Senna obtusifolia) and other annual weeds. Observations of the effects on the weed population as a whole were made, and individual observations were made for yellow nutsedge, crabgrass, and sicklepod. Stock solutions of hydrogen cyanamide at 1.25% by weight and propionic acid at 5.0% by weight, both in water, were prepared, the hydrogen cyanamide from a phosphate-buffered 50% aqueous solution. […] Data analyses were performed in the same manner as Example 1. The results expressed in weeds per pot are listed in Table V for all weeds, Table VI for yellow nutsedge, Table VII for crabgrass, and Table VIII for sicklepod, all at various application rates for both hydrogen cyanamide and propionic acid.

yellow nutsedge = test: as above; type: in vivo, Cyperus esculentus
Procedure: as §1

combined weed species = test: Herbicidal activity, cyanamide and citric acid, pre-emergence, covered pots; type: in vivo
Procedure: (§2) The weeds used in these tests were grown from a standard weed seed pack of common annual and perennial weeds representing an extreme weed situation. The weeds included crabgrass (Digitaria sanguinalis), yellow nutsedge (Cyperus esculentus), […] (Ipomoea spp.), pigweed (Amaranthus spp.), and other annual weeds. Observations of the effects on the weed population as a whole were made, and individual observations were made for crabgrass, yellow nutsedge, sicklepod, morningglory, and pigweed. Stock solutions of hydrogen cyanamide at 1.25% by weight and citric acid at 5.0% by weight, both in water, were prepared, the hydrogen cyanamide from a phosphate-buffered 50% aqueous solution. […] Data analyses were performed in the same manner as Example 1. The results expressed in weeds per pot are listed in Table XIV for all weeds, Table XV for crabgrass, Table XVI for yellow nutsedge, Table XVII for sicklepod, Table XVIII for morningglory, and Table XIX for pigweed, all at various application rates for hydrogen cyanamide, with and without citric acid.

morningglory = test: as above; type: in vivo, Ipomoea spp.
Procedure: as §2

[1] = 8 d after treatment, cyanamide 75 mg/kg soil
[2] = 8 d after treatment, cyanamide 150 mg/kg soil
[3] = 14 d after treatment, cyanamide 75 mg/kg soil
[4] = 14 d after treatment, cyanamide 150 mg/kg soil
[5] = 20 d after treatment, cyanamide 75 mg/kg soil
[6] = 20 d after treatment, cyanamide 150 mg/kg soil
[7] = 27 d after treatment, cyanamide 75 mg/kg soil
[8] = 27 d after treatment, cyanamide 150 mg/kg soil
[9] = 13 d after treatment, cyanamide 50 mg/kg soil
[10] = 13 d after treatment, cyanamide 100 mg/kg soil
[11] = 13 d after treatment, cyanamide 150 mg/kg soil
[12] = 13 d after treatment, cyanamide 200 mg/kg soil
[13] = 13 d after treatment, cyanamide 250 mg/kg soil
[14] = 19 d after treatment, cyanamide 50 mg/kg soil
[15] = 19 d after treatment, cyanamide 100 mg/kg soil
[16] = 19 d after treatment, cyanamide 150 mg/kg soil
[17] = 19 d after treatment, cyanamide 200 mg/kg soil
[18] = 19 d after treatment, cyanamide 250 mg/kg soil
[19] = 26 d after treatment, cyanamide 50 mg/kg soil
[20] = 26 d after treatment, cyanamide 100 mg/kg soil
[21] = 26 d after treatment, cyanamide 150 mg/kg soil
[22] = 26 d after treatment, cyanamide 200 mg/kg soil
[23] = 26 d after treatment, cyanamide 250 mg/kg soil

N#CN [Cyanamide, hydrogen cyanamide]
Surviving Nematodes: Dorylaimida (Dorylaimida nematodes; 12 d after treatment, pre-plant, cyanamide 20 mg/kg soil): 24 per 100 mL of soil
Surviving Nematodes: Dorylaimida (Dorylaimida nematodes; 12 d after treatment, pre-plant, cyanamide 40 mg/kg soil): 20 per 100 mL of soil
Surviving Nematodes: Dorylaimida (Dorylaimida nematodes; 12 d after treatment, pre-plant, cyanamide 60 mg/kg soil): 5 per 100 mL of soil
Surviving Nematodes: Dorylaimida (Dorylaimida nematodes; 12 d after treatment, pre-plant, cyanamide 80 mg/kg soil): 6 per 100 mL of soil
Surviving Nematodes: Dorylaimida (Dorylaimida nematodes; 12 d after treatment, pre-plant, cyanamide 120 mg/kg soil): 0 per 100 mL of soil
Surviving Nematodes: Dorylaimida (Dorylaimida nematodes; 57 d after treatment, 45 d after planting, cyanamide 20 mg/kg soil): 9 per 100 mL of soil
Surviving Nematodes: Dorylaimida (Dorylaimida nematodes; 57 d after treatment, 45 d after planting, cyanamide 40 mg/kg soil): 8 per 100 mL of soil
Surviving Nematodes: Dorylaimida (Dorylaimida nematodes; 57 d after treatment, 45 d after planting, cyanamide 60 mg/kg soil): 4 per 100 mL of soil
Surviving Nematodes: Dorylaimida (Dorylaimida nematodes; 57 d after treatment, 45 d after planting, cyanamide 80 mg/kg soil): 5 per 100 mL of soil
Surviving Nematodes: Dorylaimida (Dorylaimida nematodes; 57 d after treatment, 45 d after planting, cyanamide 120 mg/kg soil): 0 per 100 mL of soil
Weeds Per Pot: All Weeds (all weeds; [1]): 2.6
Weeds Per Pot: All Weeds (all weeds; [2]): 0.6
Weeds Per Pot: All Weeds (all weeds; [3]): 8.7
Weeds Per Pot: All Weeds (all weeds; [4]): 4.6
Weeds Per Pot: All Weeds (all weeds; [5]): 15.1
Weeds Per Pot: All Weeds (all weeds; [6]): 9.9
Weeds Per Pot: All Weeds (all weeds; [7]): 17
Weeds Per Pot: All Weeds (all weeds; [8]): 13.3
Weeds Per Pot: Yellow Nutsedge (yellow nutsedge; [1]): 1.4
Weeds Per Pot: Yellow Nutsedge (yellow nutsedge; [2]): 0.1
Weeds Per Pot: Yellow Nutsedge (yellow nutsedge; [3]): 3.6
Weeds Per Pot: Yellow Nutsedge (yellow nutsedge; [4]): 2.4
Weeds Per Pot: Yellow Nutsedge (yellow nutsedge; [5]): 4.6
Weeds Per Pot: Yellow Nutsedge (yellow nutsedge; [6]): 3.4
Weeds Per Pot: Yellow Nutsedge (yellow nutsedge; [7]): 6.9
Weeds Per Pot: Yellow Nutsedge (yellow nutsedge; [8]): 6.1
Weeds Per Pot (combined weed species) (combined weed species; 9 d after treatment, cyanamide 50 mg/kg soil): 15.0
Weeds Per Pot (combined weed species) (combined weed species; 9 d after treatment, cyanamide 100 mg/kg soil): 1.6
Weeds Per Pot (combined weed species) (combined weed species; 9 d after treatment, cyanamide 150 mg/kg soil): 0.2
Weeds Per Pot (combined weed species) (combined weed species; 9 d after treatment, cyanamide 200 mg/kg soil): 0
Weeds Per Pot (combined weed species) (combined weed species; 9 d after treatment, cyanamide 250 mg/kg soil): 0
Weeds Per Pot (combined weed species) (combined weed species; [9]): 14.4
Weeds Per Pot (combined weed species) (combined weed species; [10]): 14.0
Weeds Per Pot (combined weed species) (combined weed species; [11]): 0.9
Weeds Per Pot (combined weed species) (combined weed species; [12]): 0
Weeds Per Pot (combined weed species) (combined weed species; [13]): 0
Weeds Per Pot (combined weed species) (combined weed species; [14]): 11.2
Weeds Per Pot (combined weed species) (combined weed species; [15]): 4.8
Weeds Per Pot (combined weed species) (combined weed species; [16]): 1.6
Weeds Per Pot (combined weed species) (combined weed species; [17]): 0.3
Weeds Per Pot (combined weed species) (combined weed species; [18]): 0
Weeds Per Pot (combined weed species) (combined weed species; [19]): 21.5
Weeds Per Pot (combined weed species) (combined weed species; [20]): 10.0
Weeds Per Pot (combined weed species) (combined weed species; [21]): 3.0
Weeds Per Pot (combined weed species) (combined weed species; [22]): 0.8
Weeds Per Pot (combined weed species) (combined weed species; [23]): 0.8
Weeds Per Pot: Morningglory (morningglory; [9]): 0
Weeds Per Pot: Morningglory (morningglory; [10]): 0
Weeds Per Pot: Morningglory (morningglory; [11]): 0
Weeds Per Pot: Morningglory (morningglory; [12]): 0
Weeds Per Pot: Morningglory (morningglory; [13]): 0
Weeds Per Pot: Morningglory (morningglory; [14]): 0
Weeds Per Pot: Morningglory (morningglory; [15]): 0
Weeds Per Pot: Morningglory (morningglory; [16]): 0
Weeds Per Pot: Morningglory (morningglory; [17]): 0
Weeds Per Pot: Morningglory (morningglory; [18]): 0
Weeds Per Pot: Morningglory (morningglory; [19]): 1.6
Weeds Per Pot: Morningglory (morningglory; [20]): 0.7
Weeds Per Pot: Morningglory (morningglory; [21]): 0.4
Weeds Per Pot: Morningglory (morningglory; [22]): 0.3
Weeds Per Pot: Morningglory (morningglory; [23]): 0.1
